± gives the expanded uncertainty stated by the source.
Test: mn = molality of the nth substance listed, in mol/kg
Settings: 101 kPa, Liquid, Vibrating tube method

CCC[n+]1ccn(CCO)c1.[Cl-] [1-(2-hydroxylethyl)-3-propylimidazolium chloride] + O
mass density [kg/m3]
Settings	293.15 K	298.15 K	303.15 K
m1 = 0.01	998.4 ± 0.05	997.35 ± 0.05	995.88 ± 0.05
m1 = 0.0505	999.68 ± 0.05	998.47 ± 0.05	997.08 ± 0.05
m1 = 0.102	1001.01 ± 0.05	999.89 ± 0.05	998.4 ± 0.05
m1 = 0.208	1004.05 ± 0.05	1002.76 ± 0.05	1001.15 ± 0.05
m1 = 0.5535	1012.98 ± 0.06	1011.56 ± 0.06	1009.99 ± 0.06
m1 = 1.175	1027.62 ± 0.07	1025.68 ± 0.07	1023.8 ± 0.07
m1 = 2.103	1046.02 ± 0.09	1043.76 ± 0.09	1041.7 ± 0.09
m1 = 3.23	1063.98 ± 0.12	1061.54 ± 0.12	1058.92 ± 0.12
m1 = 4.772	1082.55 ± 0.15	1079.86 ± 0.15	1077.08 ± 0.15
m1 = 5.992	1093.61 ± 0.18	1090.78 ± 0.17	1087.9 ± 0.17
m1 = 7.003	1101.22 ± 0.19	1098.33 ± 0.19	1095.39 ± 0.19

CCC[n+]1ccn(CC(=O)O)c1.[Cl-] [1-(carboxymethyl)-3-propylimidazolium chloride] + O
mass density [kg/m3]
Settings	m1 = 0.0302	m1 = 0.0505	m1 = 0.1021	m1 = 0.2084	m1 = 0.5569	m1 = 1.257	m1 = 2.166	m1 = 3.386	m1 = 5.114	m1 = 7.768
293.15 K	999.68 ± 0.1	1000.6 ± 0.1	1002.96 ± 0.1	1007.61 ± 0.11	1021.7 ± 0.11	1046.14 ± 0.11	1071.45 ± 0.12	1097.44 ± 0.14	1123.69 ± 0.17	1150.29 ± 0.2
298.15 K	998.52 ± 0.1	999.44 ± 0.1	1001.71 ± 0.1	1006.08 ± 0.11	1019.83 ± 0.11	1044.05 ± 0.11	1069.11 ± 0.12	1094.76 ± 0.14	1120.74 ± 0.17	1147.15 ± 0.2
303.15 K	997.01 ± 0.11	998 ± 0.1	1000.1 ± 0.1	1004.64 ± 0.11	1018.22 ± 0.11	1041.75 ± 0.11	1066.6 ± 0.12	1091.97 ± 0.14	1117.73 ± 0.17	1143.97 ± 0.2

C[n+]1ccn(CC(=O)O)c1.[Cl-] [1-carboxymethyl-3-methylimidazolium chloride] + O
mass density [kg/m3]
Settings	m1 = 0.0302	m1 = 0.0505	m1 = 0.1018	m1 = 0.2072	m1 = 0.5443	m1 = 1.214	m1 = 2.041	m1 = 3.094	m1 = 4.466	m1 = 6.375
293.15 K	999.87 ± 0.1	1000.94 ± 0.1	1003.6 ± 0.11	1008.87 ± 0.11	1024.61 ± 0.11	1052.15 ± 0.11	1080.57 ± 0.12	1110.21 ± 0.14	1140.75 ± 0.16	1173 ± 0.19
298.15 K	998.71 ± 0.11	999.76 ± 0.1	1002.36 ± 0.1	1007.5 ± 0.11	1022.95 ± 0.11	1050.32 ± 0.11	1078.44 ± 0.12	1107.83 ± 0.14	1138.14 ± 0.16	1170.21 ± 0.19
303.15 K	997.12 ± 0.11	998.24 ± 0.1	1000.9 ± 0.1	1006.06 ± 0.11	1021.26 ± 0.11	1048.33 ± 0.11	1076.13 ± 0.12	1105.34 ± 0.14	1135.4 ± 0.16	1167.36 ± 0.19
